In patent EP4745138A1, “THIO-GLUTARIMIDO ISOINDOLINONE DERIVATIVE, BIFUNCTIONAL PROTEIN DEGRADER CONTAINING SAME, AND USES THEREOF” (Gluetacs Therapeutics (Shanghai) Co., Ltd., priority 2023, dated 2025):
Read-outs that look alike come from different tables or passages of the source.

Legend:
EGFR = test: Western blot, target protein degradation in H1975 Cell; format: cell-based, Human; conditions: substrate protein remaining %, treated at 500 nM and 50 nM, 24 hours
Description: (§1) Conventional Western blot assay was performed to evaluate the effects of the compounds of the present disclosure on the expression of target proteins in cells.
(§2) (1) Cell Seeding and Protein Harvesting: The selected cells were processed according to the cell seeding procedure and protein harvesting procedure in Table II-2. Table II-2 Cell Seeding and Protein Harvesting Procedures
(§3) (2) To the collected supernatant, 5X SDS sample loading buffer was added, followed by denaturation at 95°C for 5 minutes. The denatured samples were then separated by SDS-PAGE electrophoresis on a polyacrylamide gel. Proteins were transferred to a nitrocellulose membrane (0.45 µm NC membrane), blocked with blocking buffer at room temperature for 1 hour, and subjected to antibody incubation and development procedures according to the antibody manufacturer's instructions (Cell Signaling Technology).
(§4) Half-Maximal Degradation Concentration value (the drug concentration required for degrading proteins by 50%, abbreviated as DC50) reads method: comparing the grayscale values of Western blot bands from drug-treated samples with those from blank DMSO-treated controls, and identifying the drug concentration range at which the grayscale value is half that of the DMSO-treated control bands.
(§5) DC50 values can be calculated using ImageJ software to measure grayscale values of Western blot bands from drug-treated samples. The concentration-response curve is fitted to estimate the drug concentration corresponding to half the grayscale value.
(§6) Target protein remaining (%) refers to the percentage of target protein remaining in cells after treatment with protein degrader compounds.
(§7) Calculation method for target protein remaining (%): Use ImageJ software to measure grayscale values of Western blot bands from drug (protein degrader)-treated samples. The grayscale value of drug-treated bands is divided by that of internal control protein bands, and the resulting quotient is normalized to obtain the relative percentage of remaining target protein after protein degrader treatment. Target protein degradation rate(%) = 1−target protein remaining(%). [formula]

[1] = target: T1, human Cereblon WT GST-tagged protein (Homo sapiens, UniProt Q96SW2); test: CRBN-binding affinity, HTRF (CEREBLON BINDING kit); conditions: for inhibition at 0.5 µM: read-out: Inhibition Rate at 0.5 µM (%); for inhibition at 2 µM: read-out: Inhibition Rate at 2 µM (%)
T1 construct: purchased CISBIO 64BDCRBNPEH
Method in brief: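 Compounds are serially diluted in diluent #9 (1X) and added at final 2 µM and 0.5 µM. GST-tagged wild-type Cereblon is added next, followed by premixed thalidomide-red reagent and anti-GST Eu antibody, and HTRF signal is measured.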

RPMI-8226 = test: Tumor cell proliferation inhibition (CellTiter-Meiluncell Luminescent Cell Viability Assay); format: cell-based; conditions: Homo sapiens, 96 hours; for inhibition at 0.01 µM: 10 nM, read-out: Inhibition Rate at 10 nM (%); for inhibition at 0.5 µM: 500 nM, read-out: Inhibition Rate at 500 nM (%)
Method in brief: (§8)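 Following overnight seeding, tumor cells received serial compound dilutions to final levels that included 10 nM and 500 nM. Viability was assessed by luminescence at the end of the specified exposure time. Cultures were kept at 37°C with 5% CO2.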

MV-4-11 = test: as above; format: cell-based; conditions: Homo sapiens, 96 hours; for inhibition at 0.01 µM: MV4-11, 10 nM, read-out: Inhibition Rate at 10 nM (%); for inhibition at 0.5 µM: MV4-11, 500 nM, read-out: Inhibition Rate at 500 nM (%)
Method in brief: as §8

H1975 = test: as above; format: cell-based; conditions: Homo sapiens, 96 hours, Table I-3, EGFR inhibitors
Method in brief: as §8

BCR-ABL = target: T2, BCR-ABL (Homo sapiens, UniProt P00519+P11274+Q96SW2, E27K); test: Western blot, target protein degradation in K562 Cell; format: cell-based; conditions: substrate protein remaining %, treated at 500 nM and 50 nM, 24 hours
T2 construct: endogenous in cells; host or cells: K562
Description: as §1, §2, §3, §4, §5, §6, §7

SW620 = test: Tumor cell proliferation inhibition (CellTiter-Meiluncell Luminescent Cell Viability Assay); format: cell-based; conditions: Homo sapiens, 96 hours, Table I-10, BCR-ABL inhibitors
Method in brief: as §8

MM.1S = test: as above; format: cell-based; conditions: Homo sapiens, MM1.S, MM.1S, 96 hours, Table I-10, BCR-ABL inhibitors; for inhibition at 0.01 µM: 10 nM, read-out: Inhibition Rate at 10 nM (%); for inhibition at 0.5 µM: 500 nM, read-out: Inhibition Rate at 500 nM (%)
Method in brief: as §8

CFPAC-1 = test: as above; format: cell-based; conditions: Homo sapiens, 96 hours, Table I-2, ALK inhibitors
Method in brief: as §8

A375 = test: as above; format: cell-based; conditions: Homo sapiens, 96 hours, Table I-2, ALK inhibitors
Method in brief: as §8

T1 sequence (Q96SW2 whole entry): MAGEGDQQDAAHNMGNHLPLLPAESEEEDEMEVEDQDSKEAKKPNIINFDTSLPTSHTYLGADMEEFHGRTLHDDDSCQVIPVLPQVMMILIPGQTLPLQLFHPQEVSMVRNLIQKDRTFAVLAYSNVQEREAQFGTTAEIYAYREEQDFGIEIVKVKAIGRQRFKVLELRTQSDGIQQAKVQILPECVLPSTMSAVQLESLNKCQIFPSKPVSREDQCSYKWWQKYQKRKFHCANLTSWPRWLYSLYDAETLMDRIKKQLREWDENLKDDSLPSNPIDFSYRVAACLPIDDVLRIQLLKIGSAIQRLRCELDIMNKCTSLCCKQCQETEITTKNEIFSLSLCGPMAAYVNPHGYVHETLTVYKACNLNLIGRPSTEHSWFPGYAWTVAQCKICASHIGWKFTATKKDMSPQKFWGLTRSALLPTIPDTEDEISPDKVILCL
T2 sequence (P11274+P00519 fused, stated change not applied): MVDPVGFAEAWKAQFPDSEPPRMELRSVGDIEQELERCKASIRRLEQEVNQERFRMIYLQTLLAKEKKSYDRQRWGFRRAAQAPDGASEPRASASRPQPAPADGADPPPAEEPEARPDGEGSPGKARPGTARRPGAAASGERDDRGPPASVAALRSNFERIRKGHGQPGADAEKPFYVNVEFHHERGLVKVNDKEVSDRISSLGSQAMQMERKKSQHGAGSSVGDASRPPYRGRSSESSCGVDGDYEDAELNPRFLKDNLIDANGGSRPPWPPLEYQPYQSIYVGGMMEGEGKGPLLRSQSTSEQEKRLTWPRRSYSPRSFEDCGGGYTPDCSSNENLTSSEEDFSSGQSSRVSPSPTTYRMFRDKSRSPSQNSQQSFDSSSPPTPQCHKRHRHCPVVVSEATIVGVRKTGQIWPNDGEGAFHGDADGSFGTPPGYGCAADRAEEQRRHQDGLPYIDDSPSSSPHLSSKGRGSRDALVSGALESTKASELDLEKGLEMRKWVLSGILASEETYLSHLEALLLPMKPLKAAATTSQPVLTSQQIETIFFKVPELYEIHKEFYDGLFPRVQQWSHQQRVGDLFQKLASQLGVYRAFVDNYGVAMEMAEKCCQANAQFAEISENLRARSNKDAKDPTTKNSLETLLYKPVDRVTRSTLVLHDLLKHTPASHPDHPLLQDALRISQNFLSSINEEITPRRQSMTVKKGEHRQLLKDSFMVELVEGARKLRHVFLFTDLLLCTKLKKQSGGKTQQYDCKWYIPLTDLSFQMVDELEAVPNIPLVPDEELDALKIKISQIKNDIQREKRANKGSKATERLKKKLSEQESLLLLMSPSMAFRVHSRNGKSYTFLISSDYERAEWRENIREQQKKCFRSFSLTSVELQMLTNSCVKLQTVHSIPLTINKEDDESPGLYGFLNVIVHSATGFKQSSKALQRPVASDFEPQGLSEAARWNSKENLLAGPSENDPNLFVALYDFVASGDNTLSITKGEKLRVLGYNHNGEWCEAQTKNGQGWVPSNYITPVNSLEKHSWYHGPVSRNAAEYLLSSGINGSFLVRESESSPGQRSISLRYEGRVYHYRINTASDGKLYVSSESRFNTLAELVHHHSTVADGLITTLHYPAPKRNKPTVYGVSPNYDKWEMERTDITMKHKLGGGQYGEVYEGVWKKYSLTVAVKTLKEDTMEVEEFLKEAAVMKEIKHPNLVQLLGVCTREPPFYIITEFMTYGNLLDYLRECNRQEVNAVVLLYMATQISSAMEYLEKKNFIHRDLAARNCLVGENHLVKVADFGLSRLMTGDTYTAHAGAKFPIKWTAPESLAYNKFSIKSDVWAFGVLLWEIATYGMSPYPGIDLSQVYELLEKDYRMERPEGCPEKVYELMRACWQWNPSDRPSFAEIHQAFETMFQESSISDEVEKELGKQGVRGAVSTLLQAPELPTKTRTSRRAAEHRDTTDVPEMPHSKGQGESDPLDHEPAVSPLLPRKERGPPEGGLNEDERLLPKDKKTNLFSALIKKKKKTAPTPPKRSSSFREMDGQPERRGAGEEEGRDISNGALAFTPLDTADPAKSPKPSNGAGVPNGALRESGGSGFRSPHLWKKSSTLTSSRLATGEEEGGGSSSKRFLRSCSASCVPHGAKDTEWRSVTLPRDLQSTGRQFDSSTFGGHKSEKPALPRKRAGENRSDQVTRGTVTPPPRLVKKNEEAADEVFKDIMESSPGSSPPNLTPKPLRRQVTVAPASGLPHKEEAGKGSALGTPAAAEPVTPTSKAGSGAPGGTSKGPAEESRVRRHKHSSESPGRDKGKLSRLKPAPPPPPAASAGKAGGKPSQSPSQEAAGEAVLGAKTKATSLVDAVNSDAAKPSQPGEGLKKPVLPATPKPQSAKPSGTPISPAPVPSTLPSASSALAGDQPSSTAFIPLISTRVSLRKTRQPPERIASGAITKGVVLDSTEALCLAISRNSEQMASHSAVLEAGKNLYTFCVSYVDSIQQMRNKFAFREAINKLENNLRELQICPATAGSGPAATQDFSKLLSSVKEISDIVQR
T2 sequence (Q96SW2 whole entry, stated change not applied): as the sequence (Q96SW2 whole entry) above
T2 sequence (Q16531 whole entry partner): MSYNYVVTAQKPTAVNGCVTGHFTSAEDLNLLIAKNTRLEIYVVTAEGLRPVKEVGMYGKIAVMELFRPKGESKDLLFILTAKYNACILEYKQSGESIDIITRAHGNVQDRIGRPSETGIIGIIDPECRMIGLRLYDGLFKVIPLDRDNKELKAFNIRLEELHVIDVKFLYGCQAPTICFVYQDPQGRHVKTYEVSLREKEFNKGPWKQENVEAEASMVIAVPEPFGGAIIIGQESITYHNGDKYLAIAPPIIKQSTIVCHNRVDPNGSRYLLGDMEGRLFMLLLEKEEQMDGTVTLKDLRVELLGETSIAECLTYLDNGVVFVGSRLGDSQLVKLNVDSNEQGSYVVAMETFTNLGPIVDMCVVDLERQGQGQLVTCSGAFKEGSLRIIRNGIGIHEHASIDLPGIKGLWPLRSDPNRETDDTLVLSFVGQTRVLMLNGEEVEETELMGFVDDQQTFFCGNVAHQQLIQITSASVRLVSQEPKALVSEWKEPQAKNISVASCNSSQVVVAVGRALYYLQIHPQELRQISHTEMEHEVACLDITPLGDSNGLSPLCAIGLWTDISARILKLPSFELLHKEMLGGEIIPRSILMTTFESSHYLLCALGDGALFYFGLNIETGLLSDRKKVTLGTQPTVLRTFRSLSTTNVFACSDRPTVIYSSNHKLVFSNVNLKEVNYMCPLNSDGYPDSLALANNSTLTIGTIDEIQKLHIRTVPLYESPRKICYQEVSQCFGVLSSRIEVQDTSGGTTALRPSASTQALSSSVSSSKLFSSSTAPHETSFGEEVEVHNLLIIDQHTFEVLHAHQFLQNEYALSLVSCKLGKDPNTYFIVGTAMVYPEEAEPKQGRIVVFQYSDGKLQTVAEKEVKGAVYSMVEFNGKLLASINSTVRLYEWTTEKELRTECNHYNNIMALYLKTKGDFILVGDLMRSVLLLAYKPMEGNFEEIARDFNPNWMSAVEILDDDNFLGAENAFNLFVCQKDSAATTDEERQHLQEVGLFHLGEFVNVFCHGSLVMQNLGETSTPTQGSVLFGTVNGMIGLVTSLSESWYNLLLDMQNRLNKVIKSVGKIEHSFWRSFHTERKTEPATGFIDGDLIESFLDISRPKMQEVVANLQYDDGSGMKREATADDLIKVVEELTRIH

SMILES: COc1cc(N2CCC(N3CCN(Cc4ccc5c(c4)C(=S)N(C4CCC(=O)NC4=O)C5)CC3)CC2)c(C)cc1Nc1ncc(Br)c(Nc2ccc3nccnc3c2P(C)(C)=O)n1 (stereo not drawn) [GT-08762, 3-(6-((4-(1-(4-((5-bromo-4-((5-(dimethylphosphoryl)quinoxalin-6-yl)amino)pyrimidin-2-yl)amino)-5-methoxy-2-methylphenyl)piperidin-4-yl)piperazin-1-yl)methyl)-1-thioxoisoindolin-2-yl)piperidine-2,6-dione]
- Degradation of substrate protein EGFR (EGFR): A (0% ≤ substrate protein remaining % ≤ 80%)
- inhibition at 0.5 µM [1]: 60 to 80%
- inhibition at 2 µM [1]: 80 to 100%
- inhibition at 0.01 µM (RPMI-8226; Table I-3, EGFR inhibitors): 30 to 40%
- inhibition at 0.5 µM (RPMI-8226; Table I-3, EGFR inhibitors): 40 to 50%
- inhibition at 0.01 µM (MV-4-11; Table I-3, EGFR inhibitors): 30 to 40%
- inhibition at 0.5 µM (MV-4-11; Table I-3, EGFR inhibitors): 80 to 100%

SMILES: COC1CCN(c2nccc(Nc3cc4c(cn3)c(N3CCN(Cc5ccc6c(c5)C(=S)N(C5CCC(=O)NC5=O)C6)CC3)nn4C(C)C)n2)CC1 (stereo not drawn) [GT-08763, 3-(6-((4-(1-isopropyl-6-((2-(4-methoxypiperidin-1-yl)pyrimidin-4-yl)amino)-1H-pyrazolo[4,3-c]pyridin-3-yl)piperazin-1-yl)methyl)-1-thioxoisoindolin-2-yl)piperidine-2,6-dione]
- Degradation of substrate protein EGFR (EGFR): A (0% ≤ substrate protein remaining % ≤ 80%)
- inhibition at 0.5 µM [1]: 30 to 40%
- inhibition at 2 µM [1]: 80 to 100%
- inhibition at 0.01 µM (RPMI-8226; Table I-3, EGFR inhibitors): 30 to 40%
- inhibition at 0.5 µM (RPMI-8226; Table I-3, EGFR inhibitors): 50 to 60%
- inhibition at 0.01 µM (MV-4-11; Table I-3, EGFR inhibitors): 30 to 40%
- inhibition at 0.5 µM (MV-4-11; Table I-3, EGFR inhibitors): 50 to 60%

SMILES: O=C1CCC(N2Cc3ccc(CN4C[C@H]5C[C@@H]4CN5c4ccc(-c5cc(F)c6c(c5)C(=O)N(C(C(=O)Nc5nccs5)c5ncn7c5CCC7)C6)cc4)cc3C2=S)C(=O)N1 (stereo partly drawn) [GT-08764, 2-(6,7-dihydro-5H-pyrrolo[1,2-c]imidazol-1-yl)-2-(6-(4-((1R,4R)-5-((2-(2,6-dioxopiperidin-3-yl)-3-thioxoisoindolin-5-yl)methyl)-2,5-diazabicyclo[2.2.1]heptan-2-yl)phenyl)-4-fluoro-1-oxoisoindolin-2-yl)-N-(thiazol-2-yl)acetamide]
- Degradation of substrate protein EGFR (EGFR): A (0% ≤ substrate protein remaining % ≤ 80%)
- inhibition at 0.5 µM [1]: 60 to 80%
- inhibition at 2 µM [1]: 60 to 80%
- inhibition at 0.01 µM (H1975; NCI-H1975, 10 nM, read-out: Inhibition Rate at 10 nM (%)): 20 to 30%
- inhibition at 0.5 µM (H1975; NCI-H1975, 500 nM, read-out: Inhibition Rate at 500 nM (%)): 50 to 60%

SMILES: Cc1ccc(C(=O)Nc2ccc(CN3CCN(Cc4ccc5c(c4)CN(C4CCC(=O)NC4=O)C5=S)CC3)c(C(F)(F)F)c2)cc1C#Cc1cnc2cccnn12 (stereo not drawn) [GT-08767, N-(4-((4-((2-(2,6-dioxopiperidin-3-yl)-1-thioxoisoindolin-5-yl)methyl)piperazin-1-yl)methyl)-3-(trifluoromethyl)phenyl)-3-(imidazo[1,2-b]pyridazin-3-ylethynyl)-4-methylbenzamide]
- Degradation of substrate protein BCR-ABL (BCR-ABL): A (0% ≤ substrate protein remaining % ≤ 80%)
- inhibition at 0.01 µM (SW620; SW-620, 10 nM, read-out: Inhibition Rate at 10 nM (%)): 40 to 50%
- inhibition at 0.5 µM (SW620; SW-620, 500 nM, read-out: Inhibition Rate at 500 nM (%)): 80 to 100%
- inhibition at 0.01 µM (RPMI-8226; Table I-10, BCR-ABL inhibitors): 20 to 30%
- inhibition at 0.5 µM (RPMI-8226; Table I-10, BCR-ABL inhibitors): 80 to 100%
- inhibition at 0.01 µM (MM.1S): 70 to 80%
- inhibition at 0.5 µM (MM.1S): 80 to 100%
- inhibition at 0.01 µM (MV-4-11; Table I-10, BCR-ABL inhibitors): 80 to 100%
- inhibition at 0.5 µM (MV-4-11; Table I-10, BCR-ABL inhibitors): 80 to 100%

SMILES: Cc1ccc(C(=O)Nc2ccc(N3CCN(Cc4ccc5c(c4)CN(C4CCC(=O)NC4=O)C5=S)CC3)c(C(F)(F)F)c2)cc1C#Cc1cnc2cccnn12 (stereo not drawn) [GT-08768, N-(4-(4-((2-(2,6-dioxopiperidin-3-yl)-1-thioxoisoindolin-5-yl)methyl)piperazin-1-yl)-3-(trifluoromethyl)phenyl)-3-(imidazo[1,2-b]pyridazin-3-ylethynyl)-4-methylbenzamide]
- Degradation of substrate protein BCR-ABL (BCR-ABL): A (0% ≤ substrate protein remaining % ≤ 80%)

SMILES: O=C1CCC(N2Cc3cc(CN4CCN(C5CCN(c6ncc(C(=O)Nc7ccc(OC(F)(F)Cl)cc7)cc6-c6cc[nH]n6)CC5)CC4)ccc3C2=S)C(=O)N1 (stereo not drawn) [GT-08770, N-(4-(chlorodifluoromethoxy)phenyl)-6-(4-(4-((2-(2,6-dioxopiperidin-3-yl)-1-thioxoisoindolin-5-yl)methyl)piperazin-1-yl)piperidin-1-yl)-5-(1H-pyrazol-3-yl)nicotinamide]
- inhibition at 0.5 µM [1]: 20 to 30%
- inhibition at 2 µM [1]: 60 to 80%
- Degradation of substrate protein BCR-ABL (BCR-ABL): A (0% ≤ substrate protein remaining % ≤ 80%)
- inhibition at 0.01 µM (RPMI-8226; Table I-10, BCR-ABL inhibitors): 10 to 20%
- inhibition at 0.5 µM (RPMI-8226; Table I-10, BCR-ABL inhibitors): 40 to 50%
- inhibition at 0.01 µM (MM.1S): 5 to 10%
- inhibition at 0.5 µM (MM.1S): 30 to 40%

SMILES: Cc1ccc(C(=O)Nc2ccc(N3CCN(Cc4cccc5c4CN(C4CCC(=O)NC4=O)C5=S)CC3)c(C(F)(F)F)c2)cc1C#Cc1cnc2cccnn12 (stereo not drawn) [GT-08774, N-(4-(4-((2-(2,6-dioxopiperidin-3-yl)-1-thioxoisoindolin-4-yl)methyl)piperazin-1-yl)-3-(trifluoromethyl)phenyl)-3-(imidazo[1,2-b]pyridazin-3-ylethynyl)-4-methylbenzamide]
- Degradation of substrate protein BCR-ABL (BCR-ABL): A (0% ≤ substrate protein remaining % ≤ 80%)
- inhibition at 0.01 µM (MV-4-11; Table I-10, BCR-ABL inhibitors): 20 to 30%
- inhibition at 0.5 µM (MV-4-11; Table I-10, BCR-ABL inhibitors): 70 to 80%

SMILES: O=C1CCC(N2Cc3c(CN4CCN(C5CCN(c6ncc(C(=O)Nc7ccc(OC(F)(F)Cl)cc7)cc6-c6cc[nH]n6)CC5)CC4)cccc3C2=S)C(=O)N1 (stereo not drawn) [GT-08776, N-(4-(chlorodifluoromethoxy)phenyl)-6-(4-(4-((2-(2,6-dioxopiperidin-3-yl)-1-thioxoisoindolin-4-yl)methyl)piperazin-1-yl)piperidin-1-yl)-5-(1H-pyrazol-3-yl)nicotinamide]
- inhibition at 0.5 µM [1]: 40 to 53%
- inhibition at 2 µM [1]: 60 to 80%
- Degradation of substrate protein BCR-ABL (BCR-ABL): A (0% ≤ substrate protein remaining % ≤ 80%)

SMILES: COc1cc(N2CCC(N3CCN(Cc4ccc5c(c4)CN(C4CCC(=O)NC4=O)C5=S)CC3)CC2)ccc1Nc1ncc(Cl)c(Nc2ccccc2P(C)(C)=O)n1 (stereo not drawn) [GT-09425, 3-(5-((4-(1-(4-((5-chloro-4-((2-(dimethylphosphoryl)phenyl)amino)pyrimidin-2-yl)amino)-3-methoxyphenyl)piperidin-4-yl)piperazin-1-yl)methyl)-1-thioxoisoindolin-2-yl)piperidine-2,6-dione]
- inhibition at 0.5 µM [1]: 60 to 80%
- inhibition at 2 µM [1]: 80 to 100%
- inhibition at 0.01 µM (CFPAC-1; 10 nM, read-out: Inhibition Rate at 10 nM (%)): 10 to 20%
- inhibition at 0.5 µM (CFPAC-1; 500 nM, read-out: Inhibition Rate at 500 nM (%)): 60 to 70%
- inhibition at 0.01 µM (A375; A-375, 10 nM, read-out: Inhibition Rate at 10 nM (%)): 20 to 30%
- inhibition at 0.5 µM (A375; A-375, 500 nM, read-out: Inhibition Rate at 500 nM (%)): 50 to 60%
